One data set concerns peritoneal macrophages. Nature of the data set: Toxicity to peritoneal macrophages (Trypan Blue count). It is filed as cell-based, BALB/C mouse. How it is done:
Peritoneal macrophages were prepared as follows. Non-inflammatory macrophages (10^6) were collected from each BALB/C mouse. The cells adhered at 37° C. after 2 h under 5% CO2 in a CO2 incubator. The plates were then rinsed two to three times with 0.5 mL of RPMI+buffer MOPS without fetal calf serum to eliminate non-adhering cells. The supernatant on the plates was replaced by fresh medium (RPMI+glutamine+FCS+antibiotics), 0.5 mL of medium per well. To determine the toxicity of the compounds to macrophages, dilutions of compounds were added on a part of the macrophages prepared above. […] The medium was then removed and 1 μL of sterile Trypan Blue was added. Cover glasses N° 1 were left where cells were plated and then the number of macrophages in a microscope was determined with a haemocytometer. All experiments were performed in triplicate.

Data set [1] concerns axenic amastigotes of L. amazonensis (strain MHOM/BR/76/LTB-012). Nature of the data set: microbe, parasite or virus in culture. The following applies: Leishmania amazonensis, 72 h, read-out: IC50 L. amazonensis.
The test system of another data set is 3T3 cells. Nature of the data set: Cell growth inhibition bioassay (sulforhodamine B). It is filed as cell-based, mouse. Particulars: 48 h, SRB. The protocol:
(§1) The cytotoxicity of compounds was assayed as follows. […] Appropriate solvent controls were tested for comparison. The percent inhibition of cell growth relative to the control was evaluated colorimetrically using a sulforhodamine B dye by comparison to the control. The calorimetric procedure followed that published in Skehan et al., J. Nat. Cancer Inst., […], pp. 1107-1112 (1990) and Boyd & Paull, Drug Dev. Res., Vol. 34, pp. 91-109 (1995). […] The cell lines are: 3T3 cells are BALB/3T3 clone A31 embryonic mouse fibroblast cells; H460 cells are human large cell lung cancer cells; DU145 cells are human prostate carcinoma cells; MCF-7 cells are human breast adenocarcinoma cells; M-14 cells are human melanoma cells; HT-29 cells are human colon adenocarcinoma cells; PC3 cells are human prostate adenocarcinoma cells; K562 cells are human chronic myelogenous leukemia cells; and VERO cells are African Green Monkey kidney epithelial cells.

Another data set concerns DU145 cells. Nature of the data set: Cell growth inhibition bioassay (sulforhodamine B). The format is cell-based, human. Particulars: 48 h, SRB. How it is done: as §1
The test system of a further data set is H460 cells. Nature of the data set: Cell growth inhibition bioassay (sulforhodamine B). The format is cell-based, human. Particulars: 48 h, SRB. How it is done:
as §1

The next data set deals with HT-29 cells. Nature of the data set: Cell growth inhibition bioassay (sulforhodamine B). The format is cell-based, human. Particulars: 48 h, SRB. The protocol:
as §1

In the next data set the test system is K562 cells. Nature of the data set: Cell growth inhibition bioassay (sulforhodamine B). The format is cell-based, human. The following applies: 48 h, SRB. The protocol: as §1
Another data set has as its system M-14 cells. Nature of the data set: Cell growth inhibition bioassay (sulforhodamine B). The format is cell-based, human. The following applies: 48 h, SRB. How it is done:
as §1

Another data set concerns MCF-7 cells. Nature of the data set: Cell growth inhibition bioassay (sulforhodamine B). It is filed as cell-based, human. The following applies: 48 h, SRB. The protocol:
as §1

Another data set relates to VERO cells. Nature of the data set: Cell growth inhibition bioassay (sulforhodamine B). It is filed as cell-based, African Green Monkey. Particulars: 48 h, SRB. How it is done:
as §1

In a further data set the test system is M. tuberculosis H37Rv. Nature of the data set: Conventional aerobic (MABA) culture assay, luminescence MIC. The format is cell-based, Mycobacterium tuberculosis. Particulars: aerobic, 7 days, H37Rv.
Data set [2] relates to axenic amastigotes of L. amazonensis (strain MHOM/BR/76/LTB-012). Particulars: read-out: L. amazonensis IC50; Table 8b.
Data set [3] has as its system Trypanosoma cruzi (Tulahuen C4). Nature of the data set: In vitro anti-T. cruzi activity (β-galactosidase CPRG colorimetric assay in VERO monolayer). The format is cell-based. The following applies: for inhibition at 10 µg/mL / IC50: Trypanosoma cruzi, TULAHUEN, Vero; for inhibition at 10 µg/mL: 120 h, 10 μg/mL of each compound, 120 hours, read-out: T. cruzi Inhib. (%); for IC50: Table 3, read-out: IC50 T. cruzi.

For a further data set, the system named is L. amazonensis. The following applies: intralesional, compounds 5 mg/kg/day; for Mean lesion size (mm) / Mean parasite quantification (per 10^6) in lesion per mg (±SD) / Mean lesion wt (mg) (±SD) / % Variation of lesion wt / % reduction of parasite burden in the lesion: Glucantime 33 mg Sb(v)/kg/day; for Mean lesion wt (mg) (±SD): BALB/c mice n=10; for % Variation of lesion wt / % reduction of parasite burden in the lesion: vs control.

Where [4] appears, read: Mus musculus, Peritoneal macrophage, 48 h, Table 7, read-out: IC50 Macrophage.

Values after ≈ are worked out from the molar mass of the structure shown. Read-outs that look alike come from different tables or passages of the source.

By IC50 is commonly meant the midpoint of a concentration-inhibition curve. For the compound `COc1cc(O)cc(O)c1C(=O)/C=C/c1ccc(C)cc1` [Compound I-41, (2E)-1-(2,4-Dihydroxy-6-methoxyphenyl)-3-(4-methylphenyl)-2-propen-1-one], the figures for the IC50 (with peritoneal macrophages (setting [4]); in [1]) were 16.5 µM and 7.4 µM, respectively.

On to `COc1cc(O)cc(O)c1C(=O)/C=C/c1ccc(O)cc1` [Compound I-30, (2E)-1-(2,4-Dihydroxy-6-methoxyphenyl)-3-(4-hydroxyphenyl)-2-propen-1-one], for which the IC50 was found to be 21.7 µM with peritoneal macrophages (setting [4]) and 15.7 µM in [1].

In the case of `N#Cc1ccc(C=NNc2ncnc3sc4c(c23)CCCC4)cc1` [II-32], in the data set with 3T3 cells, the “GI50 in indicated cell line: 3T3” value is 50.1 mg/L (≈ 150 µM). For the same compound, the “GI50 in indicated cell line: DU145” value in the data set on DU145 cells was greater than 62.5 mg/L. For the same compound, the “GI50 in indicated cell line: H460” value with H460 cells is greater than 62.5 mg/L. The “GI50 in indicated cell line: HT-29” value in the data set on HT-29 cells is greater than 62.5 mg/L. Further, the “GI50 in indicated cell line: K562” value with K562 cells was greater than 62.5 mg/L. Moreover, the “GI50 in indicated cell line: M-14” value with M-14 cells was greater than 62.5 mg/L. Also, the “GI50 in indicated cell line: MCF-7” value in the data set on MCF-7 cells is 33.9 mg/L (≈ 102 µM). The “GI50 in indicated cell line: VERO” value in the data set with VERO cells was greater than 62.5 mg/L. Besides, the “MIC MABA” value against M. tuberculosis H37Rv was greater than 100 mg/L. In addition, the IC50 was determined as 53.9 µM in the data set with peritoneal macrophages and 10.8 µM in data set [2].

For the compound `COc1cc(O)cc(O)c1C(=O)/C=C/C=C/c1ccccc1` [Compound I-39, (2E,4E)-1-(2,4-Dihydroxy-6-methoxyphenyl)-5-phenyl-2,4-pentadien-1-one], the half-inhibitory concentration (IC50) in [1] came out at 52.6 µM.

With `C=CCOc1cc(OC)c(C(=O)/C=C/C=C/c2ccccc2)c(OCC=C)c1` [Compound I-21, (2E,4E)-1-[2-Methoxy-4,6-bis(2-propenyloxy)phenyl]-5-phenyl-2,4-pentadien-1-one], in data set [3], the inhibition at 10 µg/mL amounted to 47.7% and the IC50 is greater than 25 µM. Also, the IC50 in data set [1] worked out at 75.2 µM.

For `COc1cc(O)cc(O)c1C(=O)/C=C/c1ccc(F)cc1` [Compound I-40, (2E)-1-(2,4-Dihydroxy-6-methoxyphenyl)-3-(4-fluorophenyl)-2-propen-1-one], the IC50 with peritoneal macrophages (setting [4]) is 28.8 µM; in data set [1], 11.8 µM.

Consider `COc1cc(O)cc(O)c1C(=O)/C=C/c1ccc(Cl)cc1` [Compound I-33, (2E)-3-(4-Chlorophenyl)-1-(2,4-dihydroxy-6-methoxyphenyl)-2-propen-1-one], for which the IC50 with peritoneal macrophages (setting [4]) worked out at 19 µM; in data set [1], 11.2 µM.

Regarding `COc1cc(/C=C/C(=O)c2c(O)cc(O)cc2OC)cc(OC)c1OC` [Compound I-38, (2E)-1-(2,4-Dihydroxy-6-methoxyphenyl)-3-(3,4,5-trimethoxydroxyphenyl)-2-propen-1-one], the concentration for half-maximal inhibition (IC50) in [1] is 9.7 µM.

Take `COc1cc(/C=C/C(=O)c2c(O)cc(O)cc2OC)ccc1O` [Compound I-37, (2E)-1-(2,4-Dihydroxy-6-methoxyphenyl)-3-(3-methoxy-4-hydroxyphenyl)-2-propen-1-one]: the IC50 in [1] was 14.9 µM.

As for `COc1cc(O)cc(O)c1C(=O)/C=C/c1ccccc1Br` [Compound I-35, (2E)-3-(2-Bromophenyl)-1-(2,4-dihydroxy-6-methoxyphenyl)-2-propen-1-one], the IC50 in the data set on peritoneal macrophages (setting [4]) turned out to be 14.6 µM; in [1], 10.6 µM.

For `COc1cc(O)cc(O)c1C(=O)/C=C/c1ccc(C(F)(F)F)cc1` [Compound I-32, (2E)-1-(2,4-Dihydroxy-6-methoxyphenyl)-3-[4-(trifluoromethyl)phenyl]-2-propen-1-one], the IC50 stood at 17.1 µM in the data set with peritoneal macrophages (setting [4]) and 8.6 µM in data set [1].

As for `C=CCOc1cc(OC)c(C(=O)/C=C/c2ccc[nH]2)c(OCC=C)c1` [Compound I-22, (2E)-3-(1H-pyrrol-2-yl)-1-[2-methoxy-4,6-bis(2-propenyloxy)phenyl]-2-propen-1-one], the inhibition at 10 µg/mL in data set [3] was determined as 1.25%. The IC50 is greater than 100 µM in data set [3] and 94.3 µM in data set [1].

For the compound `O=[N+]([O-])c1ccccc1C=NNc1ncnc2sc3c(c12)CCCC3` [II-23], the “GI50 in indicated cell line: 3T3” value in the data set on 3T3 cells was greater than 62.5 mg/L. Also, in the data set with DU145 cells, the “GI50 in indicated cell line: DU145” value is 36.4 mg/L (≈ 103 µM). Further, the “GI50 in indicated cell line: H460” value in the data set with H460 cells worked out at 18.7 mg/L (≈ 52.9 µM). Besides, the “GI50 in indicated cell line: HT-29” value with HT-29 cells came out at 70.5 mg/L (≈ 199 µM). The “GI50 in indicated cell line: K562” value with K562 cells came out at 61.6 mg/L (≈ 174 µM). Further, the “GI50 in indicated cell line: M-14” value in the data set with M-14 cells was determined as 58.9 mg/L (≈ 167 µM). For the same compound, the “GI50 in indicated cell line: MCF-7” value in the data set on MCF-7 cells is 18.4 mg/L (≈ 52.1 µM). The “GI50 in indicated cell line: VERO” value in the data set on VERO cells was greater than 62.5 mg/L. Further, the “T. cruzi IC50 Lab A” value in data set [3] (Lab A) amounted to 1.1 mg/L. In addition, the “MIC MABA” value in the data set on M. tuberculosis H37Rv is greater than 100 mg/L. For the same compound, the IC50 with peritoneal macrophages was greater than 100 µM; in data set [2], 38.1 µM.

In the case of `C=CCOc1cc(OC)c(C(=O)/C=C/c2ccc(O)c(OC)c2)c(OCC=C)c1` [Compound I-18, (2E)-1-[2-Methoxy-4,6-bis(2-propenyloxy)phenyl]-3-(3-methoxy-4-hydroxyphenyl)-2-propen-1-one], in data set [3], the inhibition at 10 µg/mL was 27.9% and the IC50 is greater than 25 µM. The IC50 in [1] is 107 µM.

With `COc1cc(O)cc(O)c1C(=O)/C=C/c1ccccc1F` [Compound I-34, (2E)-1-(2,4-Dihydroxy-6-methoxyphenyl)-3-(2-fluorophenyl)-2-propen-1-one], the figures for the IC50 (in the data set on peritoneal macrophages (setting [4]); in data set [1]) were 16 µM and 11.8 µM, respectively.

In the case of “N-methylglucamine antimoniate [Glucantime, reference compound]”, in the data set on L. amazonensis (after 4 weeks treatment), the “Mean lesion size (mm)” value is listed as 2.1 mm, the “Mean parasite quantification (per 10^6) in lesion per mg (±SD)” value is 0 (0) amastigotes (×10^6)/mg, the “Mean lesion wt (mg) (±SD)” value is on record as 5.6 (±0.4) mg and the “% Variation of lesion wt” value is listed as 91%. Also, the “% reduction of parasite burden in the lesion” value in the data set with L. amazonensis (after 4 weeks treatment) was determined as 100%. Also, in the data set with L. amazonensis (after 7 weeks treatment), the “Mean lesion size (mm)” value is recorded as 2.2 mm, the “Mean parasite quantification (per 10^6) in lesion per mg (±SD)” value is given as 0 (0) amastigotes (×10^6)/mg, the “Mean lesion wt (mg) (±SD)” value was 13.5 (±2.9) mg and the “% Variation of lesion wt” value was determined as 85%. The “% reduction of parasite burden in the lesion” value in the data set on L. amazonensis (after 7 weeks treatment) turned out to be 100%. For the same compound, the Lesion diameter in the data set with L. amazonensis (Glucantime 33 mg/kg/day) was 2.2 mm. The “Reduction of parasite burden After 4 weeks” value in the data set on L. amazonensis (Glucantime 33 mg/kg/day, after 4 weeks) is 100%. In addition, the “Reduction of parasite burden After 7 weeks” value in the data set on L. amazonensis (Glucantime 33 mg/kg/day, after 7 weeks) turned out to be 100%.

Regarding `COc1cccc(/C=C/C(=O)c2c(O)cc(O)cc2OC)c1` [Compound I-31, (2E)-1-(2,4-Dihydroxy-6-methoxyphenyl)-3-(3-methoxyphenyl)-2-propen-1-one], the IC50 turned out to be 17.6 µM in the data set on peritoneal macrophages (setting [4]) and 12 µM in [1].

Consider `COc1cc(O)cc(O)c1C(=O)/C=C/c1ccccc1` [Compound I-29, (2E)-1-(2,4-Dihydroxy-6-methoxyphenyl)-3-(phenyl)-2-propen-1-one], for which the IC50 was determined as 27 µM in the data set with peritoneal macrophages (setting [4]) and 15.9 µM in data set [1].

The values above are taken from patent publication US9061984B2 (University of Louisville Research Foundation, Inc., priority 2008, dated 2015).
